Assay results taken from patent US20260053811A1, “METHODS OF TREATING HYPERTENSION IN OBESE SUBJECTS” (Mineralys Therapeutics, Inc., priority 2022, published 2026).

Tested on: hypertensive subjects
Test: Adverse events (TEAEs, SAEs, AESI, study drug discontinuation, dose modification);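 further: counts of spontaneously reported adverse events in the Safety Analysis Set, subjects grouped by treatment actually received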
Type: in vivo, human
Description: In analyses performed on the Safety Analysis Set, subjects will be analyzed according to their actual treatment received.

CC(=O)N[C@H]1CC[C@H](NC(=O)CN2CCN(c3nncc(-c4ccc(C)cc4)n3)CC2)CC1 [Compound A HBr]
TEAE leading to permanent discontinuation from study drug: Orthostatic hypotension (Part 1, 100 mg QD (N = 30)): 0 n (%)
TEAE leading to permanent discontinuation from study drug: Vascular disorders (Part 1, 100 mg QD (N = 30)): 1 (3.3) n (%)
On-treatment TEAE: Blood and lymphatic system disorders (Part 1, Active (N = 133)): 2 (1.5) n (%)
On-treatment TEAE: Blood and lymphatic system disorders, Mild (Part 1, Active (N = 133)): 2 (1.5) n (%)
On-treatment TEAE: Blood creatinine increased (Part 1, Active (N = 133)): 3 (2.3) n (%)
On-treatment TEAE: Blood creatinine increased, Mild (Part 1, Active (N = 133)): 3 (2.3) n (%)
On-treatment TEAE: Cardiac disorders (Part 1, Active (N = 133)): 4 (3.0) n (%)
On-treatment TEAE: Cortisol decreased (Part 1, Active (N = 133)): 3 (2.3) n (%)
On-treatment TEAE: Cortisol decreased, Mild (Part 1, Active (N = 133)): 3 (2.3) n (%)
On-treatment TEAE: Dizziness (Part 1, Active (N = 133)): 3 (2.3) n (%)
On-treatment TEAE: Gastrointestinal disorders (Part 1, Active (N = 133)): 6 (4.5) n (%)
On-treatment TEAE: Gastrointestinal disorders, Mild (Part 1, Active (N = 133)): 5 (3.8) n (%)
On-treatment TEAE: General disorders and administration site conditions (Part 1, Active (N = 133)): 5 (3.8) n (%)
On-treatment TEAE: General disorders and administration site conditions, Mild (Part 1, Active (N = 133)): 2 (1.5) n (%)
On-treatment TEAE: Glomerular filtration rate decreased (Part 1, Active (N = 133)): 9 (6.8) n (%)
On-treatment TEAE: Glomerular filtration rate decreased, Mild (Part 1, Active (N = 133)): 8 (6.0) n (%)
On-treatment TEAE: Headache (Part 1, Active (N = 133)): 3 (2.3) n (%)
On-treatment TEAE: Headache, Mild (Part 1, Active (N = 133)): 3 (2.3) n (%)
On-treatment TEAE: Hyperkalaemia (Part 1, Active (N = 133)): 31 (23.3) n (%)
On-treatment TEAE: Hyperkalaemia, Mild (Part 1, Active (N = 133)): 26 (19.5) n (%)
On-treatment TEAE: Hyperkalaemia, Moderate (Part 1, Active (N = 133)): 4 (3.0) n (%)
On-treatment TEAE: Hyperkalaemia, Severe (Part 1, Active (N = 133)): 1 (0.8) n (%)
On-treatment TEAE: Hypertension (Part 1, Active (N = 133)): 5 (3.8) n (%)
On-treatment TEAE: Hypertension, Moderate (Part 1, Active (N = 133)): 3 (2.3) n (%)
On-treatment TEAE: Infections and infestations (Part 1, Active (N = 133)): 11 (8.3) n (%)
On-treatment TEAE: Infections and infestations, Mild (Part 1, Active (N = 133)): 5 (3.8) n (%)
On-treatment TEAE: Infections and infestations, Moderate (Part 1, Active (N = 133)): 6 (4.5) n (%)
On-treatment TEAE: Investigations (Part 1, Active (N = 133)): 21 (15.8) n (%)
On-treatment TEAE: Investigations, Mild (Part 1, Active (N = 133)): 17 (12.8) n (%)
On-treatment TEAE: Investigations, Moderate (Part 1, Active (N = 133)): 4 (3.0) n (%)
On-treatment TEAE: Metabolism and nutrition disorders (Part 1, Active (N = 133)): 34 (25.6) n (%)
On-treatment TEAE: Metabolism and nutrition disorders, Mild (Part 1, Active (N = 133)): 29 (21.8) n (%)
On-treatment TEAE: Metabolism and nutrition disorders, Moderate (Part 1, Active (N = 133)): 4 (3.0) n (%)
On-treatment TEAE: Nervous system disorders (Part 1, Active (N = 133)): 8 (6.0) n (%)
On-treatment TEAE: Nervous system disorders, Mild (Part 1, Active (N = 133)): 6 (4.5) n (%)
On-treatment TEAE: Orthostatic hypotension (Part 1, Active (N = 133)): 3 (2.3) n (%)
On-treatment TEAE: Orthostatic hypotension, Mild (Part 1, Active (N = 133)): 3 (2.3) n (%)
On-treatment TEAE: Psychiatric disorders (Part 1, Active (N = 133)): 3 (2.3) n (%)
On-treatment TEAE: Psychiatric disorders, Moderate (Part 1, Active (N = 133)): 3 (2.3) n (%)
On-treatment TEAE: Urinary tract infection (Part 1, Active (N = 133)): 7 (5.3) n (%)
On-treatment TEAE: Urinary tract infection, Mild (Part 1, Active (N = 133)): 4 (3.0) n (%)
On-treatment TEAE: Vascular disorders (Part 1, Active (N = 133)): 9 (6.8) n (%)
On-treatment TEAE: Vascular disorders, Mild (Part 1, Active (N = 133)): 5 (3.8) n (%)
On-treatment TEAE: Vascular disorders, Moderate (Part 1, Active (N = 133)): 4 (3.0) n (%)
On-treatment TEAE: any, Mild (Part 1, Active (N = 133)): 47 (35.3) n (%)
On-treatment TEAE: any, Moderate (Part 1, Active (N = 133)): 25 (18.8) n (%)
On-treatment TEAE: any, Severe (Part 1, Active (N = 133)): 1 (0.8) n (%)
Subjects with any On-treatment TEAEs leading to withdrawal from study drug (Part 1, Active (N = 133)): 10 (7.5) n (%)
TEAE leading to permanent discontinuation from study drug: Activated partial thromboplastin time prolonged (Part 1, Active (N = 133)): 1 (0.8) n (%)
TEAE leading to permanent discontinuation from study drug: Cardiac disorders (Part 1, Active (N = 133)): 1 (0.8) n (%)
TEAE leading to permanent discontinuation from study drug: Coronary artery disease (Part 1, Active (N = 133)): 1 (0.8) n (%)
TEAE leading to permanent discontinuation from study drug: Dizziness (Part 1, Active (N = 133)): 1 (0.8) n (%)
TEAE leading to permanent discontinuation from study drug: Hyperkalaemia (Part 1, Active (N = 133)): 5 (3.8) n (%)
TEAE leading to permanent discontinuation from study drug: Hypertension (Part 1, Active (N = 133)): 1 (0.8) n (%)
TEAE leading to permanent discontinuation from study drug: Hypotension (Part 1, Active (N = 133)): 1 (0.8) n (%)
TEAE leading to permanent discontinuation from study drug: Investigations (Part 1, Active (N = 133)): 1 (0.8) n (%)
TEAE leading to permanent discontinuation from study drug: Metabolism and nutrition disorders (Part 1, Active (N = 133)): 5 (3.8) n (%)
TEAE leading to permanent discontinuation from study drug: Nervous system disorders (Part 1, Active (N = 133)): 1 (0.8) n (%)
TEAE leading to permanent discontinuation from study drug: Orthostatic hypotension (Part 1, Active (N = 133)): 1 (0.8) n (%)
TEAE leading to permanent discontinuation from study drug: Vascular disorders (Part 1, Active (N = 133)): 3 (2.3) n (%)
Dose titration: Hyperkalemia, subjects n (%) (Part 1 All active (N 159)): 6 (3.8%)
Dose titration: Hyponatremia, subjects n (%) (Part 1 All active (N 159)): 0
Dose titration: Other possibly related, subjects n (%) (Part 1 All active (N 159)): 0
Dose titration: Other unrelated, subjects n (%) (Part 1 All active (N 159)): 1 (0.6%)
Study drug discontinuation: Hyperkalemia, subjects n (%) (Part 1 All active (N 159)): 6 (3.8%)
Study drug discontinuation: Hyponatremia, subjects n (%) (Part 1 All active (N 159)): 0
Study drug discontinuation: Hypotension, subjects n (%) (Part 1 All active (N 159)): 2 (1.2%)
Study drug discontinuation: Other possibly related, subjects n (%) (Part 1 All active (N 159)): 1 (0.6%)
Study drug discontinuation: Other unrelated, subjects n (%) (Part 1 All active (N 159)): 11 (6.9%)
Deaths (Part 1 or Part 2): No deaths were reported
Subjects with TEAE resulting in dose modification (Part 2): 7
Dose titration: Hyperkalemia, subjects n (%) (Part 2 100mg QD (N 31)): 1 (3.2%)
Dose titration: Hyponatremia, subjects n (%) (Part 2 100mg QD (N 31)): 1 (3.2%)
Dose titration: Other possibly related, subjects n (%) (Part 2 100mg QD (N 31)): 0
Dose titration: Other unrelated, subjects n (%) (Part 2 100mg QD (N 31)): 0
Study drug discontinuation: Hyperkalemia, subjects n (%) (Part 2 100mg QD (N 31)): 0
Study drug discontinuation: Hyponatremia, subjects n (%) (Part 2 100mg QD (N 31)): 1 (3.4%)
Study drug discontinuation: Hypotension, subjects n (%) (Part 2 100mg QD (N 31)): 1 (2.8%)
Study drug discontinuation: Other possibly related, subjects n (%) (Part 2 100mg QD (N 31)): 0
Study drug discontinuation: Other unrelated, subjects n (%) (Part 2 100mg QD (N 31)): 1 (2.8%)
Subjects with any On-treatment TEAEs leading to withdrawal from study drug (Part 2, 100 mg QD (N = 31)): 2 (6.5) n (%)
TEAE leading to permanent withdrawal from study drug: Glomerular filtration rate decreased (Part 2, 100 mg QD (N = 31)): 1 (3.2) n (%)
TEAE leading to permanent withdrawal from study drug: Hyponatraemia (Part 2, 100 mg QD (N = 31)): 1 (3.2) n (%)
TEAE leading to permanent withdrawal from study drug: Investigations (Part 2, 100 mg QD (N = 31)): 1 (3.2) n (%)
TEAE leading to permanent withdrawal from study drug: Metabolism and nutrition disorders (Part 2, 100 mg QD (N = 31)): 1 (3.2) n (%)
TEAE leading to permanent withdrawal from study drug: Muscle spasms (Part 2, 100 mg QD (N = 31)): 1 (3.2) n (%)
TEAE leading to permanent withdrawal from study drug: Musculoskeletal and connective tissue disorders (Part 2, 100 mg QD (N = 31)): 1 (3.2) n (%)
Subjects with muscle spasms (PT) (Part 2, 100 mg QD cohort): 3 (9.7%)
Subjects with ≥1 moderate on-treatment TEAE (Part 2, 100 mg QD cohort): 12 (38.7%)
Dose titration: Hyperkalemia, subjects n (%) (Total active (N 190)): 7 (4.1%)
Dose titration: Hyponatremia, subjects n (%) (Total active (N 190)): 1 (0.5%)
Dose titration: Other possibly related, subjects n (%) (Total active (N 190)): 0
Dose titration: Other unrelated, subjects n (%) (Total active (N 190)): 1 (0.5%)
Study drug discontinuation: Hyperkalemia, subjects n (%) (Total active (N 190)): 6 (3.2%)
Study drug discontinuation: Hyponatremia, subjects n (%) (Total active (N 190)): 1 (0.5%)
Study drug discontinuation: Hypotension, subjects n (%) (Total active (N 190)): 3 (1.6%)
Study drug discontinuation: Other possibly related, subjects n (%) (Total active (N 190)): 1 (0.5%)
Study drug discontinuation: Other unrelated, subjects n (%) (Total active (N 190)): 12 (6.3%)
Subjects who developed orthostatic hypotension (fall of 20 mmHg SBP or 10 mmHg DBP sitting to standing): three
Episodes of severe hyperkalemia (pooled (Part 1 and Part 2) 100 mg QD safety set (n=60)): no episodes of severe hyperkalemia
Subjects with hypotension related to treatment (two in 100 mg QD cohorts (Part 1, Part 2), one in 12.5 mg BID): three
Serious adverse events (SAEs) related to the study medication (whole trial (Example 1 analysis)): No serious adverse events (SAEs) related to the study medication were observed
